The results in this text go back to US20100204129A1, “USE OF A PEPTIDE AS A THERAPEUTIC AGENT” (priority 2008, published 2010).

The structures appear in SMILES notation.

The subject of one data set is HepG2-2.2.15 cells. The note with it: peptide 10 micrograms per ml, dye uptake assay, % cell control.
In a further data set the test system is HIV-1IIIB. The data set can be described thus: HIV-1 antiviral assay (CPE reduction, MTS). It counts as cell-based. The note with it: peptide 10 micrograms per ml, 6 days post-infection.
In the next data set the test system is CEM-SS cells. The data set is described as follows: Cytotoxicity in HIV-1 assay (MTS cell viability). The note with it: CEM-SS cells, cells plus peptide only; peptide 10 micrograms per ml; MTS.
In a further data set the test system is MRC-5 cells. The note with it: human, 6 days.
In another data set the test system is HCMV strain AD169. The data set can be described thus: HCMV plaque reduction assay in MRC-5 cells. The note with it: HCMV in MRC-5 cells; peptide 10 micrograms per ml; 7-10 days.

Take `Nc1ccn([C@@H]2CS[C@H](CO)O2)c(=O)n1` [3TC, Lamivudine, reference compound]: the “% Cell viability” value with HepG2-2.2.15 cells amounted to 95.8%.

As for `Cc1cn([C@H]2C[C@H](N=[N+]=[N-])[C@@H](CO)O2)c(=O)[nH]c1=O` [AZT, reference compound], in the data set on HIV-1IIIB, the “% CPE reduction in HIV-1 infected CEM-SS cells” value was found to be 99%. Further, the “% Cell viability” value in the data set with CEM-SS cells amounted to 97%.

Turning to `Nc1nc(O)c2ncn(COC(CO)CO)c2n1` [Ganciclovir, reference compound], in the data set on MRC-5 cells, the “% Cell viability” value is 100%. In the data set with HCMV strain AD169, the “% plaque reduction” value amounted to 100%.

Regarding `CC(C)(C)NC(=O)[C@@H]1CN(Cc2cccnc2)CCN1C[C@@H](O)C[C@@H](Cc1ccccc1)C(=O)N[C@H]1c2ccccc2C[C@H]1O` [Indinavir, indinavir], the “% CPE reduction in HIV-1 infected CEM-SS cells” value in the data set on HIV-1IIIB is listed as 100%.
